“Also recorded” adds a separate entry of the source.
Columns and labels:
S. coelicolor [1] = assay: Induction of pigmented antibiotic (actinorhodin) production in S. coelicolor plate cultures spotted with GBLs; type: cell-based, Streptomyces coelicolor; details: for antibiotic production (dark spot): S. coelicolor SMMS plates spotted with 1-100 μg racemic mixture of I-VII and VB-D at inoculation, observed after 42 hours; for dose dependence of antibiotic production (diameter of dark spot): amount of GBL mixture I-VII and VB-D 1-100 μg; for production of pigmented antibiotics (actinorhodin): S. coelicolor on SMMS plates, 2 μL spot with 16.5-165 μg racemic GBLs X and XI at inoculation, versus control plates without GBL
Protocol: The formulas I-VII in FIG. 10 illustrate the structures of the enantiomers in the mixture of GBLs tested for ability to elicit antibiotic production, the results of which are shown in the plates in FIG. 9. […] The mixture of GBLs was added to a pure culture of non-cognate microorganism S. coelicolor. Streptomycete strains were cultured in complex medium R5 or in minimal medium MMS. See Kieser, T. et al., Practical Streptomyces Genetics, John Innes Institute, 2000.
Spore stock of S. coelicolor was used to inoculate SMMS agar (solid SMM medium) and the spore suspension on the surfaces of the plates was allowed to dry. The GBL amounts were added at the time of inoculation.
The two plates in the top of the photograph of FIG. 9 are controls cultures of S. coelicolor. The control plate on the left is a negative control in which no GBL nor vehicle was added. The control plate on the right was contacted with the vehicle only, which was a mixture of methanol and water.
A racemic mixture of GBLs containing the non-naturally occurring compounds 1-VII and virginiae butenolide-D (VB-D) was synthesized, and an amount of about 500 μg was dissolved in 100 μL of vehicle to yield a 5 mg/ml concentration solution. The plates of the second row from left to right were spotted with 20 μL (100 μg), 10 μL (50 μg), 5 μL (25 μg), and […] of the 10 mg/ml concentration solution, respectively. […] The fifth plate of the third row was spotted with 2 μL (1 μg) of a 1:10 dilution of the 10 mg/ml concentration solution.
FIG. 12 is a photograph of SMMS (supplemented minimal media solid) plates inoculated with a spore stock of S. coelicolor streaked to cover the surface of the medium in the plate. At the time of inoculation, 2 μL of a racemic solution containing each amount of a dilution of the racemic GBLs having formulas X and XI were deposited in the center of a plate. Plate 1a was spotted with 2 μL of a solution containing 16.5 μg of GBLs X and XI. Plates 2a and 2b were spotted with 2 μL of a solution containing 33 μg of GBLs X and XI. Plate 3a was spotted with a solution containing 49.5 μg of GBLs X and XI. Plates 4a and 4b were spotted with a solution containing 66 μg of GBLs X and XI. Plates 5a, 6a, 7a, were spotted with solutions containing 99 μg, 132 μg, and 165 μg of GBLs X and XI, respectively. Racemic mixture GBLs were present in equal molar amounts. […] No pigment production was observed on the control plates shown in FIG. 7 not contacted with GBLs.

S. glaucescens = assay: Principal component analysis of secondary metabolites of S. glaucescens small scale fermentations with GBLs; type: cell-based; details: for induction of secondary metabolite production: S. glaucescens fermented in SMM medium, LC-MS data, versus untreated control (FIG. 17)
Protocol: S. glaucescens cells were grown in 3 mL cultures under 96 different conditions of medium, GBL choice, and GBL concentration. Each GBL solution was added to a tube in each of the following concentrations: 0.2 μM, 0.8 μM, 4 μM, 20 μM, and 100 μM. Media were a minimal medium SMM or a yeast enriched complex medium R5 (also called R2YE). The GBL indicated in FIG. 17 as PR001 and PR002 are shown in FIG. 16, and have the chemical formulae, respectively: 3-(1-hydroxyethyl)-4-(hydroxymethyl)dihydrofuran-2(3H)-one; and, 3-(1-hydroxyheptyl)-4-(hydroxymethyl)dihydrofuran-2(3H)-one.
Fermentations were incubated in 24-well blocks (CR 424, Enzyscreen B.V., Netherlands) with lids (1221a), and were shaken at 200 rpm for 5 days at 28° C. in an Infors HT incubator (Infors AG, Switzerland). For analysis, a C18 SPE-IT tip (57234-U from Sigma-Aldrich) was added to each fermentation which were further shaken at 400 rpm for one hour. Tips were removed and rinsed in deionized water, and were analyzed directly or stored for analysis. Analysis was collected at ionsense, Inc. (Saugus, Mass.) vaporized with a DART source at 400 C and 1 mm/s, and mass spectral data collected in a Thermo LTQ. Analysis used Progenesis QI from Nonlinear Dynamics (Waters).
Principal component analysis data of secondary metabolites induced by the GBLs in comparison to control absent GBL are shown in FIG. 17. […] Accordingly, 100 μM GBL was used in large scale fermentions.

S. coelicolor [2] = assay: Large scale S. coelicolor fermentation with GBL, extract fractionation and LC-MS identification of induced secondary metabolites; type: cell-based, Streptomyces coelicolor; details: S. coelicolor 300 mL cultures in SMM, 100 μM GBL; for Desferrioxamine B production / Desferrioxamine E production / streptorubin B production / undecylprodigiosin production: 5 days; for Desferrioxamine B production: fraction 28, peak at 1.81, versus untreated control; for Desferrioxamine E production: fraction 28, peak at 2.09, versus untreated control; for streptorubin B production: fraction 41, peak at 3.6, versus untreated control; for undecylprodigiosin production: fraction 41, peak at 3.8, versus untreated control
Protocol: Yields of both known and unknown bioactive compounds regulated by the presence of signaling hormones are improved by contacting producing cells with an appropriate GBL. Secondary metabolites were isolated from cultures of cells. Triplicate 300 mL cultures of S. coelicolor in SMM, was treated with the synthetic racemic mixture of VB-D and seven enantiomers of the non-cognate GBL shown in FIG. 10, at a total concentration of 100 μM, and an identical culture was grown without GBL. Cells were grown for five days at 29 C shaking at 220 rpm. Triplicates were pooled with GBL-treated and control cultures pooled separately.
A slurry of absorbent resins HP-20, XAD-16, XAD-7 and XAD-4 was added (2-4% weight/volume) and shaking was continued overnight. The resin and cell mass were removed by filtration and were washed three times with 200 mL deionized water. Resin and cell mass were extracted three times with 100-300 mL methanol to elute secondary metabolites from the resin. This extract was concentrated by rotary evaporation to remove extraction solvent.
The crude extract was dissolved in 1-3 mL of dimethylsulfoxide (DMSO) and was injected into a reveleris C18 reverse phase column on a Gilson High-Pressure Liquid Chromatography system. A flow rate of 15 ml/min was run for 40 minutes using mobile phases of methanol with 0.1% formic acid, and water with 0.1% formic acid. Forty-eight fractions were collected from a twenty minutes gradient of solvent from 15% methanol to 95% methanol, and were analyzed for antibacterial content on soft agar lawns of each of a Gram negative indicator strain, Escherichia coli, and a Gram positive indicator strain, Bacillus subtilis.
Further, 10 μL fraction volumes of each fraction were injected into a Waters Xevo G2-S Q-TOF LCMS system for further analytical separation and mass identification.
Fraction 28 of each of the GBL and the control extracts were each analyzed by LC-MS-TOF.
Fraction 41 of each of the GBL and the control extracts were each analyzed by LC-MS-TOF. […] Fraction 41 was subjected to UV chromatogram of diode array HPLC detector analysis. Again at prominent peak at 3.83 was observed. This material was determined to be undecylprodigiosin by mass chromatogram shown in FIG. 25, which has an observed mass of 393.27 and a calculated mass of 394.25.

[3] = listed as synthetic non-cognate GBL

SMILES: CCCCCCC(O)C1C(=O)OCC1CO (single isomer, unassigned) [3-(1-hydroxyheptyl)-4-(hydroxymethyl)dihydrofuran-2(3H)-one]
- antibiotic production (dark spot) (S. coelicolor [1]; listed as VB-D and seven enantiomer GBLs thereof having the formulas I-VII): production of the blue antibiotic, actinorhodin, and red prodiginies
- antibiotic production (dark spot) (S. coelicolor [1]; listed as compounds 1-VII and virginiae butenolide-D (VB-D)): produced antibiotic
- antibiotic production (dark spot) (S. coelicolor [1]; listed as mixture of GBLs): production of an antibacterial activity was elicited
- antibiotic production (S. coelicolor [1]; S. coelicolor SMMS plates with racemic mixture of I-VII and VB-D, after 24 hours): No antibiotic production was observed
- dose dependence of antibiotic production (diameter of dark spot) (S. coelicolor [1]; S. coelicolor plates, listed as VB-D and seven enantiomer GBLs thereof having the formulas I-VII): monotonic dose-dependent response
- dose dependence of antibiotic production (diameter of dark spot) (S. coelicolor [1]; S. coelicolor plates, listed as compounds 1-VII and virginiae butenolide-D (VB-D)): dose-dependent monotonically
- induction of secondary metabolite production (S. glaucescens): induction of secondary metabolite production
- Desferrioxamine B production (S. coelicolor [2]): induced
- Desferrioxamine B production (S. coelicolor [2]; [3]): substantially enhanced or even induced
- Desferrioxamine E production (S. coelicolor [2]): induced
- Desferrioxamine E production (S. coelicolor [2]; [3]): substantially enhanced or even induced
- streptorubin B production (S. coelicolor [2]): induced
- streptorubin B production (S. coelicolor [2]; [3]): substantially enhanced or even induced
- undecylprodigiosin production (S. coelicolor [2]): induced
- undecylprodigiosin production (S. coelicolor [2]; [3]): substantially enhanced or even induced
- production of unknown compound (peak at 1.84) (S. coelicolor [2]; fraction 28, versus untreated control): induced

SMILES: CC(O)C1C(=O)OCC1CO (stereo not drawn) [3-(1-hydroxyethyl)-4-(hydroxymethyl)dihydrofuran-2(3H)-one]
- distinction from control secondary metabolites produced absent GBL (principal component analysis) (S. glaucescens; S. glaucescens 3 mL cultures, 5 days, 0.2-100 μM GBL): greatest distinction from control
- induction of secondary metabolite production (S. glaucescens): induction of secondary metabolite production
- dose dependence of induction of secondary metabolites (S. glaucescens; S. glaucescens, GBL 0.2, 0.8, 4, 20, 100 μM): in a dose-dependent manner
- concentration of maximal distinction from control (S. glaucescens; S. glaucescens, principal component analysis): 100 µM

SMILES: CCCCCCC(=O)C1C(=O)OCC1CO (stereo not drawn) [GBLs X and XI]
- time of induction of production of the pigmented antibiotics (S. coelicolor [1]; S. coelicolor SMMS plates contacted with racemic GBLs X and XI): early induction
- production of pigmented antibiotics (actinorhodin) (S. coelicolor [1]): pigmented antibiotic is produced only in response to treatment; also recorded: increased production of pigmented antibiotics
- production of pigmented antibiotics (actinorhodin) (S. coelicolor [1]; listed as X and XI): production of the purple antibiotic, actinorhodin
- dose dependence of antibiotic production (S. coelicolor [1]; S. coelicolor plates, increasing amount of GBLs X and XI (FIG. 3)): dose-dependent increase in antibiotic production

From patent US11447742B2, “Compositions and methods for activation and overexpression of secondary metabolites in microorganisms” (Prospective Research, Inc., priority 2016, dated 2022)
